Results as given in US20260240208A1, “FLAVANONE COMPOUNDS AND THEIR USE AS FLAVOR MODIFIERS” (Firmenich Incorporated, priority 2023, published 2026).

Columns and labels:
TIR sweet taste receptor = target: T1, TIR sweet taste receptor (Homo sapiens, UniProt Q7RTX0+Q8TE23); experiment: in vitro cell-based assay with cells overexpressing the sweet taste receptor, sweet dose-response; settings: for EC50: cells overexpressing TIR sweet taste receptor, sweet dose-response curves
T1 construct: expressed in transfected cells
T1 sequence (Q8TE23 20-839): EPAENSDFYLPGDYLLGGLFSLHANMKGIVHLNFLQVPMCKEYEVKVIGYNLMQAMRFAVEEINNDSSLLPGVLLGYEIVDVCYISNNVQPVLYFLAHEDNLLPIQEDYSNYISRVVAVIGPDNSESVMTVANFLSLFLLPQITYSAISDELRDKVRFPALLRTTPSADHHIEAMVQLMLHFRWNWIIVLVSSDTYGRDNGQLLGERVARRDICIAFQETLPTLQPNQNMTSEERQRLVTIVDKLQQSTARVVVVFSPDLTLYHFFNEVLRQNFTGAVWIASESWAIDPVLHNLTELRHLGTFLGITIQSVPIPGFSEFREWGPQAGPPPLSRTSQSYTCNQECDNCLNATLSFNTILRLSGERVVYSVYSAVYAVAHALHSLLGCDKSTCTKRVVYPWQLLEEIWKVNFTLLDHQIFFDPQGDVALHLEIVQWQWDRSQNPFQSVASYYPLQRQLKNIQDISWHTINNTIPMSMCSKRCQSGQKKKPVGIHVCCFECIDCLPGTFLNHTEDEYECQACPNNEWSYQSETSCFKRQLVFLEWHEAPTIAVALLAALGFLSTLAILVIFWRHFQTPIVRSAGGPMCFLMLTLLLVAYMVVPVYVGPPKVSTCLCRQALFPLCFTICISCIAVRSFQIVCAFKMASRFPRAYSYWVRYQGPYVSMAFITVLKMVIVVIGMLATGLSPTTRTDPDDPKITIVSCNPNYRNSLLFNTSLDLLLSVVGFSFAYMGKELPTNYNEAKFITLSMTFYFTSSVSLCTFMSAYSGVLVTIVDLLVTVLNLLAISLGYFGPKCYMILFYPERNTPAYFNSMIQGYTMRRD
T1 sequence (Q7RTX0 21-852): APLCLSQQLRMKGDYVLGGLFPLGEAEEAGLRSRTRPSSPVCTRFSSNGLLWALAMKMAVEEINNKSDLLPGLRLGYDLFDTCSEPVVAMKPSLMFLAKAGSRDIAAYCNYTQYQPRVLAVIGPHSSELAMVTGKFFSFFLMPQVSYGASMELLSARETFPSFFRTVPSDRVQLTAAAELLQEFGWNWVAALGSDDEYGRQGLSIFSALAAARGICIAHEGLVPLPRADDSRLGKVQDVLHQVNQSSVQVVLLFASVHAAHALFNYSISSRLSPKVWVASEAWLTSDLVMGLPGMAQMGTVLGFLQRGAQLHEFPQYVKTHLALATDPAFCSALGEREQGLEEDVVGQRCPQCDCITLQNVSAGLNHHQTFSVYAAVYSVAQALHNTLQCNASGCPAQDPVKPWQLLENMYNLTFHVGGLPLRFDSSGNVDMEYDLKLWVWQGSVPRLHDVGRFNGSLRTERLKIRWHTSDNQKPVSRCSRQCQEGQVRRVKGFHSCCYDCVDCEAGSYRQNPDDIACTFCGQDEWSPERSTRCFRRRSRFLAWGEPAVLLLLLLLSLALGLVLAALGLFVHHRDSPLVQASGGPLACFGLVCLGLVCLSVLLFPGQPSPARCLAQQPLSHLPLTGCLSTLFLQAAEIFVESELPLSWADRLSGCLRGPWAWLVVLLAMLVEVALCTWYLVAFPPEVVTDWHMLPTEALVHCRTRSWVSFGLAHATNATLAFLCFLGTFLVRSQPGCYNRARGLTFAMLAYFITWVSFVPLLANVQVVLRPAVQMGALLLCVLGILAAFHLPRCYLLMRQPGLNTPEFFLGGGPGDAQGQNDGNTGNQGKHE
Procedure: Each of Compounds 101-106 was synthesized. Thereafter, the compounds were tested in an in vitro cell-based assay having cells that overexpress the TIR sweet taste receptor. The sweet dose-response curves were recorded and the EC50 was determined. Table 2 summarizes calculated EC50 values for certain tested compounds.

[1] = sensory panel paired comparison: sweetness alone versus 1.5 wt % sucrose; type: in vivo, human
Procedure: The test samples were prepared from Compound 101 (4 ppm aqueous solution) and Compound 103 (7 ppm aqueous solution). Each of the test samples was evaluated by a sensory panel for its sweetness relative to 1.5 wt % sucrose solution. The panelists were asked to choose the sweeter sample in a pair of a compound test sample and a 1.5 wt % solution of sucrose. For Compound 101, the taste sample was selected 14 times as sweeter, while the sucrose control was selected 46 times out of total 60 times. For Compound 103, the taste sample was selected 14 times as sweeter, while the sucrose control was selected 55 times out of total 69 times.

[2] = sensory panel: sweetness enhancement of sucrose, rating on a scale of 0 to 10; type: in vivo, human; settings: mean panel score, scale 0 to 10
Procedure: Two control samples were prepared of 6 wt % sucrose and 7.5 wt % sucrose in Low sodium buffer. Two test samples were prepared: one at 6 wt % sucrose plus 4 ppm of Compound 101, and the other at 6 wt % sucrose plus 7 ppm of Compound 103. Panelists were asked to evaluate the four samples and rate the sweetness on a scale of 0 to 10, with a higher rating indicating greater sweetness.

[3] = pair: Compound 101 4 ppm aqueous solution vs 1.5 wt % sucrose solution, total 60 times
[4] = pair: Compound 103 7 ppm aqueous solution vs 1.5 wt % sucrose solution, total 69 times

COc1ccc(C2Oc3cccc(O)c3C(=O)C2OC(C)=O)cc1O (stereo not drawn) [Compound 101, 5-hydroxy-2-(3-hydroxy-4-methoxy-phenyl)-4-oxochroman-3-yl acetate]
EC50 (TIR sweet taste receptor): ~1 µM | times selected as sweeter [1, 3]: 14 times | Sweetness Score ([2]; 6 wt % sucrose + 4 ppm compound): 9.8

CCC(=O)OC1C(=O)c2c(O)cccc2OC1c1ccc(OC)c(O)c1 (stereo not drawn) [Compound 102, 5-hydroxy-2-(3-hydroxy-4-methoxy-phenyl)-4-oxochroman-3-yl propionate]
EC50 (TIR sweet taste receptor): ~2 µM | agonist character (TIR sweet taste receptor; remark printed beside the EC50): partial agonist

COc1ccc(C2Oc3cc(O)ccc3C(=O)C2OC(C)=O)cc1O (stereo not drawn) [Compound 103, 7-hydroxy-2-(3-hydroxy-4-methoxyphenyl)-4-oxochroman-3-yl acetate]
EC50 (TIR sweet taste receptor): ~8 µM | times selected as sweeter [1, 4]: 14 times | Sweetness Score ([2]; 6 wt % sucrose + 7 ppm compound): 8.8

CCC(=O)OC1C(=O)c2ccc(O)cc2OC1c1ccc(OC)c(O)c1 (stereo not drawn) [Compound 104, 7-hydroxy-2-(3-hydroxy-4-methoxyphenyl)-4-oxochroman-3-yl propionate]
EC50 (TIR sweet taste receptor): ~10 µM

CCC(=O)OC1C(=O)c2c(O)cc(O)cc2OC1c1ccc(OC)c(O)c1 (stereo not drawn) [Compound 105, 5,7-dihydroxy-2-(3-hydroxy-4-methoxyphenyl)-4-oxochroman-3-yl propionate]
EC50 (TIR sweet taste receptor): ~5 µM

CC(=O)OC1C(=O)c2c(O)cccc2OC1c1ccc(O)cc1 (stereo not drawn) [Compound 106, 5-hydroxy-2-(4-hydroxyphenyl)-4-oxochroman-3-yl acetate]
EC50 (TIR sweet taste receptor): ~45 µM

OC[C@H]1O[C@@](CO)(O[C@H]2O[C@H](CO)[C@@H](O)[C@H](O)[C@H]2O)[C@@H](O)[C@@H]1O [sucrose, reference compound]
times selected as sweeter [1, 3]: 46 times | times selected as sweeter [1, 4]: 55 times | Sweetness Score ([2]; 6 wt % sucrose alone, low sodium buffer (control)): 6.6 | Sweetness Score ([2]; 7.5 wt % sucrose alone, low sodium buffer (control)): 8.6
